The subject of one experiment is TNFα. In words: Bioassay of TNFα production by LPS activated RAW 264.7 macrophages using L929 cell line. It is filed as cell-based. The note with it: Mus musculus; L929 + ActD + supernatant from LPS + compound (10 μM) treated RAW 264.7 macrophage; crystal violet; mean ± S.D. of triplicate; read-out: PERCENTAGE CELL SURVIVAL ± S.D. How it is done:
Measurement of TNFα in culture medium or supernatant is performed using immunoassay and bioassay. Bioassay was used for the measurement of bioactive TNFα production in the culture medium.
TNFα secretion into the medium by LPS activated macrophage was assayed using L929 tumorigenic murine cells (ATCC) specifically sensitive to TNFα. L929 cell cytotoxicity assay was performed by a modified method (Sano et al., The Journal of Immunology, 1999, 163: 387-395 The Journal of Immunology, 1999, 163: 387-395) based on that described elsewhere (Flick D A, Gifford G E. J Immunol Methods. 1984 Mar. 30; 68(1-2): 167-175). Briefly, the L929 cells (log phase cells) were seeded into a flat bottom 96 well plates (6×10^4/well) in 100 μl volume of RPMI 1640 containing 2% FCS and incubated overnight at 37° C. in a 5% CO2 incubator. A working dilution of the culture supernatant collected from LPS (200 ng/ml) activated macrophage in a volume of 100 μl per well was first tested to obtain 70-75% cytotoxicity equivalent to […] of recombinant TNFα standard to the TNFα sensitive L929 cell line. After incubation of the L929 cells appropriate fixed dilution of the culture supernatant collected from the compound treated (10 μM) wells, containing the LPS stimulated macrophages in a volume of 100 μl with 2 μg/ml Actinomycin D (Act D) was taken and added to the L929 cells and the cells were incubated at room temperature for 15 min followed by 18 h incubation at 37° C. overnight with 5% CO2. On the next day the medium was removed and the cells were stained with 0.2% (w/v) crystal violet for 10 minutes. The wells were gently rinsed with water, and 33% acetic acid (100 μl/well) was added to extract the retained crystal violet. The absorbance at 570 nm was finally measured.
Tumor necrosis factor-α can cause direct cytotoxicity to the lung fibroblast cell line (L929). Bioassay of TNF α is designated on the basis of this cytotoxicity of TNF α, which can be used for the identification of murine TNF α activity in tissue culture supernatants. Culture supernatant collected from the synthetic molecules treated well containing LPS stimulated macrophage modulated the extent of cytotoxicity to the L929 cells (see Table 1).

A further experiment has as its system RAW 264.7 cells. In words: Nitrite quantification (Griess) in LPS stimulated macrophages. As to conditions: RAW 264.7 + LPS (200 ng/ml) + 10 μM compound, 24 h; LPS + DMSO control 14.560, basal 0.782. It is filed as cell-based, mouse. How it is done: NO2^− accumulation was used as an indicator of Nitric Oxide (NO) production in the medium as described previously (Green et al., 1982 Anal Biochem 126, 131-138). […] The isolated supernatants were mixed with an equal volume of Griess reagent (1% sulfanilamide, 0.1% naphthylenediamine dihydrochloride, and 2% phosphoric acid) and incubated at room temperature for 15 min. NaNO2 was used to generate a standard curve, and nitrite production was determined by measuring the optical density at 540 nm.
To estimate the anti-inflammatory effects of all the synthetic molecules listed in this study, we measured the accumulation of nitrite, the stable metabolite of NO, in the culture media using Griess reagent.
To investigate the effect of CAMVE on NO production, we measured the accumulation of nitrite, the stable metabolite of NO, in the culture media using Griess reagent. To investigate the effect of CAMVE on NO production, Raw 264.7 cells, pretreated with indicated concentrations of CAMVE for 1 h were incubated with LPS (250 ng/ml) for 24 h.

`C/C=C/c1ccc(OC(=O)/C=C/c2ccc(O)c(O)c2)c(OC)c1` [compound 7, 2-methoxy-4-[(1E)-prop-1-en-1-yl]phenyl(2E)-3-(3,4-dihydroxyphenyl)acrylate]: in the experiment on TNFα, the viability at 10 µM stood at 65.3 ± 1.11%. The “CONCENTRATION OF NITRITE μM ± SD” value in the experiment with RAW 264.7 cells amounted to 3.760 ± 0.546 µM.

Regarding `COc1cc(C=O)ccc1OC(=O)/C=C/c1ccc(O)cc1` [compound 19, 4-formyl-2-methoxyphenyl (2E)-3-(4-hydroxyphenyl)acrylate], in the experiment on TNFα, the viability at 10 µM turned out to be 51.6 ± 1.57%. In addition, in the experiment with RAW 264.7 cells, the “CONCENTRATION OF NITRITE μM ± SD” value was 8.227 ± 0.115 µM.

Regarding `COC(=O)/C=C/c1cc(OC)c2c(c1)[C@@H](C(=O)OC)[C@H](c1ccc(OC(=O)/C=C/c3ccc(O)cc3)c(OC)c1)O2` [compound 24], the viability at 10 µM in the experiment with TNFα turned out to be 50.3 ± 1.28%. The “CONCENTRATION OF NITRITE μM ± SD” value in the experiment with RAW 264.7 cells came to 8.582 ± 0.214 µM.

In the case of `C/C=C/c1cc(OC)c2c(c1)[C@@H](C)[C@H](c1ccc(OC(=O)/C=C/c3ccc(O)cc3)c(OC)c1)O2` (racemic) [compound 29, (±)-2β-[4-O-(4-hydroxycinnamoyl)-3-methoxyphenyl]-3α-methyl-7-methoxy-5-[(E)-1-propenyl]-2,3-dihydrobenzofuran], in the experiment with TNFα, the viability at 10 µM is 50.6 ± 1.49%. Further, in the experiment with RAW 264.7 cells, the “CONCENTRATION OF NITRITE μM ± SD” value was 8.382 ± 0.454 µM.

In the case of `COC(=O)/C=C/c1ccc(OC(=O)/C=C/c2ccc(O)cc2)c(OC(=O)/C=C/c2ccc(O)cc2)c1` [compound 22, methyl [3,4-bis O-(4-hydroxyphenylacryloyl)]phenylacrylate], the viability at 10 µM with TNFα came out at 65.6 ± 1.33%. In addition, the “CONCENTRATION OF NITRITE μM ± SD” value in the experiment on RAW 264.7 cells came to 3.982 ± 0.301 µM.

As for `C/C=C/c1ccc(OC(=O)c2ccc(O)c(OC)c2)c(OC)c1` [compound 14, 2-Methoxy-4-[(1E)-prop-1en-1-yl]phenyl4-hydroxy-3-methoxy benzoate], in the experiment with TNFα, the viability at 10 µM came out at 51 ± 1.91%. For the same compound, the “CONCENTRATION OF NITRITE μM ± SD” value with RAW 264.7 cells stood at 8.382 ± 0.278 µM.

In the case of `C/C=C/c1ccc(OC(=O)/C=C/c2ccc(O)cc2)c(OC)c1` [compound 23, 2-methoxy-4-[(1E)-prop-1-en-1-yl]phenyl (2E)-3-(4-hydroxyphenyl)acrylate], the viability at 10 µM in the experiment with TNFα was 51.2 ± 1.55%. Moreover, the “CONCENTRATION OF NITRITE μM ± SD” value in the experiment on RAW 264.7 cells came out at 8.338 ± 0.204 µM.

For `COC(=O)c1ccc(OC(=O)c2cc(O)c(O)c(O)c2)c(OC)c1` [compound 26, 2-methoxy-4-(methoxycarbonyl)phenyl 3,4,5-trihydroxybenzoate], the viability at 10 µM with TNFα worked out at 58.8 ± 2.15%. Also, the “CONCENTRATION OF NITRITE μM ± SD” value in the experiment with RAW 264.7 cells worked out at 6.138 ± 0.567 µM.

With `COC(=O)/C=C/c1ccc(OC(=O)/C=C/c2ccc(O)cc2)c(OC)c1` [compound 18, 2-methoxy-4-[(1E)-3-methoxy-3-oxoprop-1-en-1-yl]phenyl (2E)-3-(4-hydroxyphenyl)acrylate], the viability at 10 µM in the experiment on TNFα was found to be 50.4 ± 1.57%. Also, the “CONCENTRATION OF NITRITE μM ± SD” value with RAW 264.7 cells is 7.960 ± 0.437 µM.

As to `COC(=O)c1ccccc1OC(=O)c1ccc(O)c(OC)c1` [compound 9, 2-(Methoxycarbonyl)phenyl 4-hydroxy-3-methoxybenzoate], the viability at 10 µM with TNFα was determined as 51.1 ± 2.77%. Also, in the experiment on RAW 264.7 cells, the “CONCENTRATION OF NITRITE μM ± SD” value was 7.582 ± 0.868 µM.

As to `C=CCc1ccc(OC(=O)/C=C/c2ccc(O)c(O)c2)c(OC)c1` [compound 4, 4-allyl-2-methoxyphenyl (2E)-3-(3,4-dihydroxyphenyl)acrylate], the viability at 10 µM with TNFα was determined as 69.1 ± 1.49%. In the experiment with RAW 264.7 cells, the “CONCENTRATION OF NITRITE μM ± SD” value worked out at 3.093 ± 0.437 µM.

Consider `COc1cc(C(=O)Oc2ccc(C=O)cc2OC)ccc1O` [compound 15, 4-formyl-2-methoxyphenyl 4-hydroxy-3-methoxybenozoate], for which the viability at 10 µM in the experiment on TNFα was determined as 50.9 ± 1.84%. Also, the “CONCENTRATION OF NITRITE μM ± SD” value in the experiment on RAW 264.7 cells was determined as 8.271 ± 0.342 µM.

As to `C/C=C/c1cc(OC)c2c(c1)[C@@H](C)[C@H](c1ccc(OC(=O)/C=C/c3ccc(O)c(OC)c3)c(OC)c1)O2` (racemic) [compound 25, (±)-2β-[4-O-(3-methoxy-4-hydroxycinnamoyl)-3-methoxyphenyl]-3α-methyl-7-methoxy-5-[(E)-1-propenyl]-2,3-dihydrobenzofuran], the viability at 10 µM in the experiment with TNFα stood at 53.7 ± 2.05%. The “CONCENTRATION OF NITRITE μM ± SD” value in the experiment with RAW 264.7 cells stood at 7.871 ± 0.168 µM.

As to `COC(=O)c1ccccc1OC(=O)/C=C/c1ccc(O)cc1` [compound 20, methyl 2-{[(2E)-3-(4-hydroxyphenyl)prop-2-enoyl]oxy}benzoate], in the experiment on TNFα, the viability at 10 µM turned out to be 51.9%. In the experiment on RAW 264.7 cells, the “CONCENTRATION OF NITRITE μM ± SD” value stood at 8.493 ± 0.267 µM.

Take `COC(=O)/C=C/c1cc(OC)c2c(c1)[C@@H](C(=O)OC)[C@H](c1ccc(OC(=O)c3ccc(O)c(OC)c3)c(OC)c1)O2` [compound 12, Methyl(E)-3-[2β-{4-O-(3-methoxy-4-hydroxyphenylcarbonyl)-3-methoxyphenyl}-7-methoxy-3α-methoxycarbonyl-2,3-dihydro-1-benzofuran-5-yl]prop-2-enoate]: in the experiment with TNFα, the viability at 10 µM came out at 51.3 ± 1.21%. The “CONCENTRATION OF NITRITE μM ± SD” value in the experiment on RAW 264.7 cells was determined as 9.582 ± 0.482 µM.

As to `COC(=O)/C=C/c1cc(OC)c2c(c1)[C@@H](C(=O)OC)[C@H](c1ccc(OC(=O)/C=C/c3ccc(O)c(O)c3)c(OC)c1)O2` [compound 6, Methyl (E)-3-[2β-{4-O-(3,4-dihydroxycinnamoyl)-3-methoxyphenyl}-7-methoxy-3α-methoxycarbonyl-2,3-dihydro-1-benzofuran-5-yl]prop-2-enoate], the viability at 10 µM in the experiment with TNFα was found to be 66.6 ± 1.49%. The “CONCENTRATION OF NITRITE μM ± SD” value in the experiment on RAW 264.7 cells amounted to 3.204 ± 0.168 µM.

Turning to `COC(=O)c1ccc(OC(=O)/C=C/c2ccc(O)cc2)c(OC)c1` [compound 17, methyl 4-{[(2E)-3-(4-hydroxyphenyl)prop-2-enoyl]oxy}-3-methoxy benzoate], in the experiment with TNFα, the viability at 10 µM came out at 51.9 ± 1.43%. The “CONCENTRATION OF NITRITE μM ± SD” value in the experiment with RAW 264.7 cells is 8.404 ± 0.315 µM.

On to `COc1cc(C=O)ccc1OC(=O)/C=C/c1ccc(O)c(O)c1` [compound 8, 4-formyl-2-methoxyphenyl (2E)-3-(3,4-dihydroxyphenyl)acrylate], for which the viability at 10 µM with TNFα is 67.8 ± 1.25%. For the same compound, the “CONCENTRATION OF NITRITE μM ± SD” value in the experiment on RAW 264.7 cells came to 3.893 ± 0.133 µM.

In the case of `C=CCc1ccc(OC(=O)/C=C/c2ccc(O)cc2)c(OC)c1` [compound 21, 4-allyl-2-methoxyphenyl (2E)-3-(4-hydroxyophenyl)acrylate], the viability at 10 µM in the experiment with TNFα is 52.3 ± 1.25%. The “CONCENTRATION OF NITRITE μM ± SD” value in the experiment with RAW 264.7 cells turned out to be 8.293 ± 0.371 µM.

Turning to `C/C=C/c1cc(OC)c2c(c1)[C@@H](C)[C@H](c1ccc(OC(=O)c3ccc(O)c(OC)c3)c(OC)c1)O2` (racemic) [compound 16, (±)-2β-[4-O-(3-methoxy-4-hydroxybenzoyl)-3-methoxyphenyl]-3α-methyl-7-methoxy-5-[(E)-1-propenyl]-2,3-dihydrobenzofuran], the viability at 10 µM with TNFα was 49 ± 1.99%. Further, in the experiment with RAW 264.7 cells, the “CONCENTRATION OF NITRITE μM ± SD” value came to 8.449 ± 0.234 µM.

Consider `C/C=C/c1cc(OC)c2c(c1)[C@@H](C)[C@H](c1ccc(OC(=O)/C=C/c3ccc(O)c(O)c3)c(OC)c1)O2` (racemic) [compound 5, (±)-2β-[4-O-(3,4,-dihydroxycinnamoyl)-3-methoxyphenyl]-3α-methyl-7-methoxy-5-[(E)-1-propenyl]-2,3 dihydrobenzofuran], for which the viability at 10 µM with TNFα is 67.8 ± 0.866%. For the same compound, in the experiment with RAW 264.7 cells, the “CONCENTRATION OF NITRITE μM ± SD” value worked out at 3.449 ± 0.315 µM.

With `COC(=O)c1ccc(OC(=O)c2ccc(O)c(OC)c2)c(OC)c1` [compound 10, 2-methoxy-4-(methoxycarbonyl)phenyl 4-hydroxy-3-methoxy benzoate], in the experiment with TNFα, the viability at 10 µM was 51.6 ± 1.4%. Further, the “CONCENTRATION OF NITRITE μM ± SD” value with RAW 264.7 cells is 6.849 ± 0.806 µM.

On to `COC(=O)/C=C/c1ccc(OC(=O)/C=C/c2ccc(O)c(O)c2)c(OC)c1` [compound 2, 2-methoxy-4-[(1E)-3-methoxy-3-oxoprop-1-en-1-yl]phenyl (2E)-3-(3,4 dihydroxyphenyl)acrylate], for which, in the experiment on TNFα, the viability at 10 µM worked out at 68%. In addition, in the experiment on RAW 264.7 cells, the “CONCENTRATION OF NITRITE μM ± SD” value turned out to be 2.404 ± 0.168 µM.

(Values after patent publication US20100168228A1, “NOVEL CHEMOTHERAPEUTIC AGENTS AGAINST INFLAMMATION AND CANCER” (RELIANCE LIFE SCIENCES PVT. LTD., priority 2006, published 2010).)
